Experiment [1] addresses isolated recombinant JAK1 kinase domain (Homo sapiens (Human), UniProt P23458). Put plainly: JAK1 enzyme assay (Caliper LabChip, Ki). Format: biochemical. The essentials:
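Recombinant human JAK1 kinase domain phosphorylating an N-terminally 5-carboxyfluorescein-labelled JAK3-derived peptide, 30 min at 22 °C, stopped with EDTA (50 mM final). Phosphorylated fraction of total peptide read by Caliper LabChip mobility shift; Ki from Morrison tight-binding fit corrected for ATP competition (Ki=Ki,app/(1+[ATP]/Km,app)).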

Experiment [2] deals with isolated recombinant JAK2 kinase domain (Homo sapiens (Human), UniProt O60674). Put plainly: JAK2 enzyme assay (Caliper LabChip, Ki). The class given is biochemical. An outline of the steps: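 Recombinant human JAK1 or JAK2 kinase domain phosphorylating a 5-carboxyfluorescein-labelled JAK3-derived peptide; 30 min at 22 °C, stopped with EDTA (50 mM final). Phosphorylated product measured as a fraction of total peptide by Caliper LabChip mobility shift.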
Chain of isolated recombinant JAK2 kinase domain (O60674 849-1124): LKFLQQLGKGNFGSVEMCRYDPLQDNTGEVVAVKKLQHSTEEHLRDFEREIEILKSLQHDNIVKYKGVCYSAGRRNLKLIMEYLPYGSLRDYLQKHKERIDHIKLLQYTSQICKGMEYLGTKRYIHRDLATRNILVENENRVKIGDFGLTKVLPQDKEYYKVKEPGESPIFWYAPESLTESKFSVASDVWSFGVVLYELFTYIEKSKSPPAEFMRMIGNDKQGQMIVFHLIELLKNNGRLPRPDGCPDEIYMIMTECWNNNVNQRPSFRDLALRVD

The test system of experiment [3] is JAK1-dependent STAT6 phosphorylation downstream of IL-13 stimulation in BEAS-2B human bronchial epithelial cells. In words: JAK1 pathway assay in BEAS-2B cells (IL-13-pSTAT6, MSD). The class given is cell-based. As to conditions: Homo sapiens, BEAS-2B. The method, then:
JAK1 Pathway Assay in Cell Lines was carried out as follows:
Inhibitor potency (EC50) was determined in cell-based assays designed to measure JAK1 dependent STAT phosphorylation.
In one assay approach, TF-1 human erythroleukemia cells obtained from the American Type Culture Collection (ATCC; Manassas, Va.) were used to measure JAK1-dependent STAT6 phosphorylation downstream of IL-13 stimulation. Prior to use in the assays, TF-1 cells were starved of GM-CSF overnight in OptiMEM medium (Life Technologies, Grand Island, N.Y.) supplemented with 0.5% charcoal/dextran stripped fetal bovine serum (FBS), 0.1 mM non-essential amino acids (NEAA), and 1 mM sodium pyruvate. The assays were run in 384-well plates in serum-free OptiMEM medium using 300,000 cells per well. In a second assay approach, BEAS-2B human bronchial epithelial cells obtained from ATCC were plated at 100,000 cells per well of a 96-well plate one day prior to the experiment. The BEAS-2B assay was run in complete growth medium (bronchial epithelial basal medium plus bulletkit; Lonza; Basel, Switzerland).
Test compounds were serially diluted 1:2 in DMSO and then diluted 1:50 in medium just before use. Diluted compounds were added to the cells, for a final DMSO concentration of 0.2%, and incubated for 30 min (for the TF-1 assay) or 1 hr (for the BEAS-2B assay) at 37° C. Then, cells were stimulated with human recombinant cytokine at their respective EC90 concentrations, as previously determined for each individual lot. Cells were stimulated with IL-13 (R&D Systems, Minneapolis, Minn.) for 15 min at 37° C. The TF-1 cell reactions were stopped by the direct addition of 10× lysis buffer (Cell Signaling Technologies, Danvers, Mass.), whereas the BEAS-2B cell incubations were halted by the removal of medium and addition of 1× lysis buffer. The resultant samples were frozen in the plates at −80° C. Compound mediated inhibition of STATE phosphorylation was measured in the cell lysates using MesoScale Discovery (MSD) technology (Gaithersburg, Md.).

The mark [4] stands for this setting: BEAS-2B cells, IL-13 stimulation, read-out: IL-13 p-STAT6 BEAS-2B IC50.

The structures appear in SMILES notation. pIC50, pKi: −log10 of the molar value. Like-named read-outs stand apart in the source and are kept apart here. Where only a bound is given, the exact number is not on record here.

Chain of isolated recombinant JAK1 kinase domain (P23458 875-1153): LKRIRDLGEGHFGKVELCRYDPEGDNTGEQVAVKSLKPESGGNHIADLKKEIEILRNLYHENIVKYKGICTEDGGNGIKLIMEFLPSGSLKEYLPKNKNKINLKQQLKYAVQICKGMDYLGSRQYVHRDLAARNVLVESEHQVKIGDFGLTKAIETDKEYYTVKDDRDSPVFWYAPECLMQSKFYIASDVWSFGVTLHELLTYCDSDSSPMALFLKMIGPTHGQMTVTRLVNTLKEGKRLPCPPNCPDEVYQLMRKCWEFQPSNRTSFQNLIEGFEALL

Consider `N#CCC1(n2cc(C(N)=O)c(NC(=O)C3CC3)n2)CCN(Cc2ccc(-c3ccc(Cl)cc3)cc2)CC1` [Example 147, 1-[1-[[4-(4-chlorophenyl)phenyl]methyl]-4-(cyanomethyl)-4-piperidyl]-3-(cyclopropanecarbonylamino) pyrazole-4-carboxamide], for which the pKi in experiment [1] (read-out: JAK1 Ki) is 8.68; in experiment [2], 7.49. Further, the negative-log IC50 (pIC50) in experiment [3] (setting [4]) was 7.29.

As to `N#CCC1(n2cc(C(N)=O)c(NC(=O)C3CC3)n2)CCN(Cc2ccc(-c3ccc(Cl)s3)cc2)CC1` [Example 148, 1-[1-[[4-(5-chloro-2-thienyl)phenyl]methyl]-4-(cyanomethyl)-4-piperidyl]-3-(cyclopropanecarbonylamino) pyrazole-4-carboxamide], the pKi in experiment [1] (read-out: JAK1 Ki) was 8.74; in experiment [2], 7.67. The pIC50 in experiment [3] (setting [4]) is 7.32.

Take `N#CCC1(n2cc(C(N)=O)c(NC(=O)C3CC3)n2)CCN(Cc2ccc(-c3csc(Cl)c3)cc2)CC1` [Example 149, 1-[1-[[4-(5-chloro-3-thienyl)phenyl]methyl]-4-(cyanomethyl)-4-piperidyl]-3-(cyclopropanecarbonylamino) pyrazole-4-carboxamide]: the pKi in experiment [1] (read-out: JAK1 Ki) is 9.15; in experiment [2] it was 8.33. Moreover, the pIC50 in experiment [3] (setting [4]) is 7.39.

With `N#CCC1(n2cc(C(N)=O)c(NC(=O)C3CC3)n2)CCN(Cc2ccc(-c3ccc(C(F)(F)F)cc3)cc2)CC1` [Example 151, 1-[4-(cyanomethyl)-1-[[4-[4-(trifluoromethyl)phenyl]phenyl]methyl]-4-piperidyl]-3-(cyclopropanecarbonylamino) pyrazole-4-carboxamide], the figures for the pKi in experiment [1] (read-out: JAK1 Ki) and in experiment [2] were 8.47 and 6.81, respectively. Besides, the pIC50 in experiment [3] (setting [4]) was 6.54.

As to `COc1cccc(-c2ccc(CN3CCC(CC#N)(n4cc(C(N)=O)c(NC(=O)C5CC5)n4)CC3)cc2)c1` [Example 152, 1-[4-(cyanomethyl)-1-[[4-(3-methoxyphenyl)phenyl]methyl]-4-piperidyl]-3-(cyclopropanecarbonylamino) pyrazole-4-carboxamide], the pKi was 8.89 in experiment [1] (read-out: JAK1 Ki) and 8.11 in experiment [2]. For the same compound, in experiment [3] (setting [4]), the pIC50 was 6.90.

Regarding `COc1ccc(-c2ccc(CN3CCC(CC#N)(n4cc(C(N)=O)c(NC(=O)C5CC5)n4)CC3)cc2)cc1` [Example 153, 1-[4-(cyanomethyl)-1-[[4-(4-methoxyphenyl)phenyl]methyl]-4-piperidyl]-3-(cyclopropanecarbonylamino) pyrazole-4-carboxamide], the pKi in experiment [1] (read-out: JAK1 Ki) was 8.96; in experiment [2], 7.51. Moreover, the pIC50 in experiment [3] (setting [4]) is 6.99.

As to `CCc1cccc(-c2ccc(CN3CCC(CC#N)(n4cc(C(N)=O)c(NC(=O)C5CC5)n4)CC3)cc2)c1` [Example 154, 1-[4-(cyanomethyl)-1-[[4-(3-ethylphenyl)phenyl]methyl]-4-piperidyl]-3-(cyclopropanecarbonylamino) pyrazole-4-carboxamide], the pKi is 8.82 in experiment [1] (read-out: JAK1 Ki) and 8.06 in experiment [2]. Moreover, the negative-log IC50 (pIC50) in experiment [3] (setting [4]) is 6.94.

On to `CCc1ccc(-c2ccc(CN3CCC(CC#N)(n4cc(C(N)=O)c(NC(=O)C5CC5)n4)CC3)cc2)cc1` [Example 155, 1-[4-(cyanomethyl)-1-[[4-(4-ethylphenyl)phenyl]methyl]-4-piperidyl]-3-(cyclopropanecarbonylamino) pyrazole-4-carboxamide], for which the figures for the pKi in experiment [1] (read-out: JAK1 Ki) and in experiment [2] were 9.22 and 8.14, respectively. In experiment [3] (setting [4]), the pIC50 is 7.22.

On to `N#CCC1(n2cc(C(N)=O)c(NC(=O)C3CC3)n2)CCN(Cc2ccc(-c3cccc(CO)c3)cc2)CC1` [Example 156, 1-[4-(cyanomethyl)-1-[[4-[3-(hydroxymethyl)phenyl]phenyl]methyl]-4-piperidyl]-3-(cyclopropanecarbonylamino) pyrazole-4-carboxamide], for which the negative logarithm of the Ki (pKi) in experiment [1] (read-out: JAK1 Ki) was 9.22; in experiment [2], 8.37. Also, the pIC50 in experiment [3] (setting [4]) was 6.68.

With `COCc1cccc(-c2ccc(CN3CCC(CC#N)(n4cc(C(N)=O)c(NC(=O)C5CC5)n4)CC3)cc2)c1` [Example 157, 1-[4-(cyanomethyl)-1-[[4-[3-(methoxymethyl)phenyl]phenyl]methyl]-4-piperidyl]-3-(cyclopropanecarbonylamino) pyrazole-4-carboxamide], the negative logarithm of the Ki (pKi) in experiment [1] (read-out: JAK1 Ki) is 8.80; in experiment [2], 7.86. For the same compound, the pIC50 in experiment [3] (setting [4]) was 6.98.

For `Cc1cc(CN2CCC(CC#N)(n3cc(C(N)=O)c(NC(=O)C4CC4)n3)CC2)ccc1-c1ccccc1` [Example 160, 1-[4-(cyanomethyl)-1-[(3-methyl-4-phenyl-phenyl)methyl]-4-piperidyl]-3-(cyclopropanecarbonylamino) pyrazole-4-carboxamide], the pKi in experiment [1] (read-out: JAK1 Ki) is 8.49; in experiment [2] it was 7.92. In addition, the pIC50 in experiment [3] (setting [4]) was 6.73.

For the compound `N#CCC1(n2cc(C(N)=O)c(NC(=O)C3CC3)n2)CCN(Cc2ccc(-c3ccccc3)c(C#N)c2)CC1` [Example 161, 1-[4-(cyanomethyl)-1-[(3-cyano-4-phenyl-phenyl)methyl]-4-piperidyl]-3-(cyclopropanecarbonylamino) pyrazole-4-carboxamide], the pKi in experiment [1] (read-out: JAK1 Ki) is 8.26; in experiment [2] it was 7.45. Besides, the pIC50 in experiment [3] (setting [4]) was 5.99.

Consider `COc1cc(CN2CCC(CC#N)(n3cc(C(N)=O)c(NC(=O)C4CC4)n3)CC2)ccc1-c1ccccc1` [Example 162, 1-[4-(cyanomethyl)-1-[(3-methoxy-4-phenyl-phenyl)methyl]-4-piperidyl]-3-(cyclopropanecarbonylamino) pyrazole-4-carboxamide], for which the negative-log Ki (pKi) is 8.51 in experiment [1] (read-out: JAK1 Ki) and 7.97 in experiment [2]. Moreover, the pIC50 in experiment [3] (setting [4]) was 6.53.

With `N#CCC1(n2cc(C(N)=O)c(NC(=O)C3CC3)n2)CCN(Cc2ccc(-c3ccccc3)c(Cl)c2)CC1` [Example 163, 1-[1-[(3-chloro-4-phenyl-phenyl)methyl]-4-(cyanomethyl)-4-piperidyl]-3-(cyclopropanecarbonylamino) pyrazole-4-carboxamide], the results for the pKi in experiment [1] (read-out: JAK1 Ki) and in experiment [2] were 8.68 and 7.73, respectively. In experiment [3] (setting [4]), the pIC50 is 6.99.

With `N#CC[C@]1(n2cc(C(N)=O)c(NC(=O)C3CC3)n2)CCN(Cc2ccccc2)C[C@@H]1F` [Example 164, 1-[1-benzyl-4-(cyanomethyl)-3-fluoro-4-piperidyl]-3-(cyclopropanecarbonylamino) pyrazole-4-carboxamide], the figures for the pKi in experiment [1] (read-out: JAK1 Ki) and in experiment [2] were 8.57 and 8.05, respectively. For the same compound, the pIC50 in experiment [3] (setting [4]) was 6.56.

Turning to `N#CCC1(n2cc(C(N)=O)c(NC(=O)C3CC3)n2)CCN(Cc2ccc(-c3ccc(C(F)(F)F)cc3)nc2)CC1` [Example 166, 1-[4-(cyanomethyl)-1-[[6-[4-(trifluoromethyl)phenyl]-3-pyridyl]methyl]-4-piperidyl]-3-(cyclopropanecarbonylamino) pyrazole-4-carboxamide], the pKi is 8.66 in experiment [1] (read-out: JAK1 Ki) and 7.10 in experiment [2]. Further, the pIC50 in experiment [3] (setting [4]) is 7.17.

Consider `N#CCC1(n2cc(C(N)=O)c(NC(=O)C3CC3)n2)CCN(C(=O)OCC(F)(F)F)CC1` [Example 167, 2,2,2-trifluoroethyl 4-[4-carbamoyl-3-(cyclopropanecarbonylamino)pyrazol-1-yl]-4-(cyanomethyl)piperidine-1-carboxylate], for which the negative-log Ki (pKi) in experiment [1] (read-out: JAK1 Ki) was 8.64; in experiment [2] it was 7.54. Further, the pIC50 in experiment [3] (setting [4]) is 6.08.

With `N#CCC1(n2cc(C(N)=O)c(NC(=O)C3CC3)n2)CCN(C(=O)CCC(F)(F)F)CC1` [Example 169, 1-[4-(cyanomethyl)-1-(4,4,4-trifluorobutanoyl)-4-piperidyl]-3-(cyclopropanecarbonylamino) pyrazole-4-carboxamide], the pKi is 8.43 in experiment [1] (read-out: JAK1 Ki) and 7.32 in experiment [2]. Also, in experiment [3] (setting [4]), the pIC50 is under 6.00.

Regarding `N#CC[C@]1(n2cc(C(N)=O)c(NC(=O)C3CC3)n2)CC[C@@H](N2CC(F)(F)C2)CC1` [Example 178, 1-[1-(cyanomethyl)-4-(3,3-difluoroazetidin-1-yl)cyclohexyl]-3-(cyclopropanecarbonylamino) pyrazole-4-carboxamide], the values for the pKi in experiment [1] and in experiment [2] were 8.33 and 7.74, respectively. Further, the pIC50 in experiment [3] (read-out: IL-13 p-STAT6 BEAS-2B IC50, BEAS-2B cells, IL-13 stimulation) was 6.78.

Source of the values: patent publication US11731943B2, “Therapeutic compounds, compositions and methods of use thereof” (priority 2016, dated 2023).
